Laboratory results: patent US6512000B1, “Aminocarbonyl-substituted benzimidazoles having tryptase-inhibitory activity” (Boehringer Ingelheim Pharma KG, priority 1999, dated 2003)
Counter-ions that a name gives are not always drawn.

Molecular target: T1, rh beta tryptase (Homo sapiens, UniProt P20231)
T1 construct: purchased Promega
Assay: Tryptase inhibition test (cleavage of N-p-tosyl-Gly-Pro-Lys-para-nitroaniline, p-nitroaniline measured at 405 nm)
Type: biochemical
Settings: pH 7.4, 37° C.; for inhibition at 10 µM / % Inhibition (10 μM): inhibition of rh beta tryptase at 10 μM test substance, substrate N-p-tosyl-Gly-Pro-Lys-para-nitroaniline 0.6 mM, 5 minutes; for IC50: concentration at which 50% of the tryptase enzyme activity is inhibited, substrate 0.6 mM
Outline: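 Recombinant human beta tryptase (0.91 U/ml) in 100 mM Tris HCl pH 7.4 with 5 mM calcium and 100 mg/ml heparin; compounds pre-incubated 5 min, then 0.6 mM tosyl-Gly-Pro-Lys-pNA added, 5 min at 37 °C. p-Nitroaniline read at 405 nm; % inhibition at 10 μM, IC50 determined when inhibition exceeded 70%.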

T1 sequence (P20231 31-275): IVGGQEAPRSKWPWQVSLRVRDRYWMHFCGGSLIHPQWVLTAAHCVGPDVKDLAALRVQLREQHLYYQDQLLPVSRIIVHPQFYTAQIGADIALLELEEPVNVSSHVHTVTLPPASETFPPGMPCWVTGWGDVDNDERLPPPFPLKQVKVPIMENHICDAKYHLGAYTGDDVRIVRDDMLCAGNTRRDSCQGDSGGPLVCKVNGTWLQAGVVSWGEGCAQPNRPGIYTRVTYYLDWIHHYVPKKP

| inhibition at 10 µM [%] | % Inhibition (10 μM) [%] | IC50 [nM] | Molecule |
| --- | --- | --- | --- |
| 53 | – | – | COc1cccc(CN(Cc2ccc(CN)cc2)C(=O)c2ccc3c(c2)nc(CCc2ccc(C(=N)N)cc2)n3CCCN2CCN(c3ccccc3C)CC2)c1 [Example 80, 2-[2-(4-amidinophenyl)ethyl]-1-{3-[4-(2-methylphenyl)-piperazin-1-yl]-propyl}-benzimidazol-5-yl-carboxylic acid-N-[4-(amino-methyl)-benzyl]-N-(3-methoxybenzyl)-amide] |
| 61 | – | – | COc1cccc(CN(Cc2ccc(CN)cc2)C(=O)c2ccc3c(c2)nc(CCc2ccc(C(=N)N)cc2)n3CC2CCCO2)c1 (centres unmarked) [Example 82, 2-[2-(4-amidinophenyl)ethyl]-1-(tetrahydrofuran-2-yl-methyl)-benzimidazol-5-yl-carboxylic acid-N-[4-(amino-methyl)-benzyl]-N-(3-methoxybenzyl)-amide] |
| – | 74 | – | 2-[2-(4-amidinophenyl)ethyl]-1-[3-(benzylcarbonylamino)-propyl]-benzimidazol-5-yl-carboxylic acid-N-[4-(amino-methyl)-benzyl]-N-(2-pyridyl)-amide [Example 120] |
| – | – | 107 | Cn1c(CCc2ccc(C(=N)N)cc2)nc2cc(C(=O)N(CCC(c3ccccc3)c3ccccc3)Cc3ccc(C(=N)N)cc3)ccc21 [Example 17, 2-[2-(4-Amidinophenyl)-ethyl]-1-methyl-benzimidazol-5-yl-carboxylic Acid-N-(4-amidinobenzyl)-N-(3,3-diphenylpropyl)-amide-dihydrochloride] |
| 59 | – | – | N=C(N)c1ccc(CCc2nc3cc(C(=O)N(Cc4ccc(CN)cc4)Cc4cccc(C(F)(F)F)c4)ccc3n2CC2CCCO2)cc1 (centres unmarked) [Example 210, 2-[2-(4-amidinophenyl)ethyl]-1 (tetrahydrofuran-2-yl-methyl)-benzimidazol-5-yl-carboxylic acid-N-[4-(amino-methyl)-benzyl]-N-(3-trifluoromethylbenzyl)-amide] |
| – | – | 319 | Cn1c(CCc2ccc(CN)cc2)nc2cc(C(=O)N(CCC(c3ccccc3)c3ccccc3)Cc3ccc(CN)cc3)ccc21 [Example 43, 2-[2-(4-Aminomethyl-phenyl)-ethyl]-1-methyl-benzimidazol-5-yl-carboxylic Acid-N-(4-aminomethylbenzyl)-N-(3,3-diphenylpropyl)-amide-dihydrochloride] |
| 56 | – | – | CCCCN(Cc1ccc(CN)cc1)C(=O)c1ccc2c(c1)nc(CCc1ccc(C(=N)N)cc1)n2CCCN1CCOCC1 [Example 97, 2-[2-(4-amidinophenyl)ethyl]-1-[3-(morpholin-4-yl)-propyl]-benzimidazol-5-yl-carboxylic acid-N-[4-(amino-methyl)-benzyl]-N-n-butyl-amide] |
| – | 57 | – | 2-[2-(4-amidinophenyl)ethyl]-1-(3-di-n-butylaminopropyl)-benzimidazol-5-yl-carboxylic acid-N-[4-(amino-methyl)-benzyl]-N-(2-pyridyl)-amide [Example 119] |
| 52 | – | – | N=C(N)c1ccc(CCc2nc3cc(C(=O)N(Cc4ccc(CN)cc4)Cc4ccc5ccccc5c4)ccc3n2CCc2ccccc2)cc1 [Example 235, 2-[2-(4-amidinophenyl)ethyl]-1-(2-phenylethyl)-benzimidazol-5-yl-carboxylic acid-N-[4-(amino-methyl)-benzyl]-N-(2-naphthylmethyl)-amide] |
| 64 | – | – | N=C(N)c1ccc(CCc2nc3cc(C(=O)N(Cc4ccc(CN)cc4)Cc4ccccc4F)ccc3n2CC2CCCO2)cc1 (centres unmarked) [Example 226, 2-[2-(4-amidinophenyl)ethyl]-1-(tetrahydrofuran-2-yl-methyl)-benzimidazol-5-yl-carboxylic acid-N-[4-(amino-methyl)-benzyl]-N-(2-fluorobenzyl)-amide] |
| – | – | 305 | CCOc1ccccc1N1CCN(C(=O)c2ccc3c(c2)nc(CCc2ccc(C(=N)N)cc2)n3C)CC1 [Example 54, 2-[2-(4-Amidinophenyl)-ethyl]-1-methyl-benzimidazol-5-yl-carboxylic Acid-[N′-(2-ethoxyphenyl)-piperazide]] |

More lines, now with the values behind:

| Molecule | inhibition at 10 µM [%] | % Inhibition (10 μM) [%] | IC50 [nM] |
| --- | --- | --- | --- |
| 2-[2-(4-amidinophenyl)ethyl]-1-(2-cyclohexylethyl)-benzimidazol-5-yl-carboxylic acid-N-[4-(amino-methyl)-benzyl]-N-(3-pyridyl)-amide [Example 137] | – | 52 | – |
| COC(=O)c1ccc(CN(Cc2ccc(CN)cc2)C(=O)c2ccc3c(c2)nc(CCc2ccc(C(=N)N)cc2)n3CCc2ccccc2)cc1 [Example 443, 2-[2-(4-amidinophenyl)ethyl]-1-(2-phenylethyl)-benzimidazol-5-yl-carboxylic acid-N-[4-(amino-methyl)-benzyl]-N-[4-(methoxycarbonyl)-benzyl]-amide] | 52 | – | – |
| N=C(N)c1ccc(CCc2nc3cc(C(=O)N(CCN)Cc4ccccc4)ccc3n2CCCNC(=O)Cc2ccccc2)cc1 [Example 296, 2-[2-(4-amidinophenyl)ethyl]-1-[3-(benzylcarbonylamino)-propyl]-benzimidazol-5-yl-carboxylie acid-N-(2-aminoethyl)-N-benzyl-amide] | – | 51 | – |
| N=C(N)c1ccc(CCc2nc3cc(C(=O)N(CCN)CC4CCCCC4)ccc3n2CC2CC2)cc1 [Example 346, 2-[2-(4-amidinophenyl)ethyl]-1-cyclopropylmethyl-benzimidazol-5-yl-carboxylic acid-N-(2-aminoethyl)-N-cyclohexylmethyl-amide] | 51 | – | – |
| 2-[2-(4-amidinophenyl)ethyl]-1-cyclopropylmethyl-benzimidazol-5-yl-carboxylic acid-N-(2-aminoethyl)-N-(3-pyridyl)-amide [Example 330] | – | 54 | 503 |
| Cn1c(CCc2ccc(C(=N)N)cc2)nc2cc(C(=O)N(CCC(=N)N)CCc3ccccc3)ccc21 [Example 24, 2-[2-(4-Amidinophenyl)-ethyl]-1-methyl-benzimidazol-5-yl-carboxylic Acid-N-(2-amidinoethyl)-N-(2-phenylethyl)-amide-dihydrochloride] | – | – | 16 |
| COc1cccc(CN(CCN)C(=O)c2ccc3c(c2)nc(CCc2ccc(C(=N)N)cc2)n3CC2CC2)c1 [Example 266, 2-[2-(4-amidinophenyl)ethyl]-1-cyclopropylmethyl-benzimidazol-5-yl-carboxylic acid-N-(2-aminoethyl)-N-(3-methoxybenzyl)-amide] | 61 | – | 641 |
| N=C(N)c1ccc(CCc2nc3cc(C(=O)N(CCN)CCCc4ccccc4)ccc3n2CC2CC2)cc1 [Example 362, 2-[2-(4-amidinophenyl)ethyl]-1-cyclopropylmethyl-benzimidazol-5-yl-carboxylic acid-N-(2-aminoethyl)-N-(3-phenylpropyl)-amide] | 74 | – | – |
| CCCCN(Cc1ccc(CN)cc1)C(=O)c1ccc2c(c1)nc(CCc1ccc(C(=N)N)cc1)n2CCCN1CCN(c2ccccc2C)CC1 [Example 96, 2-[2-(4-amidinophenyl)ethyl]-1-{3-[4-(2-methylphenyl)-piperazin-1-yl]-propyl}-benzimidazol-5-yl-carboxylic acid-N-[4-(amino-methyl)-benzyl]-N-n-butyl-amide] | 55 | – | – |
| Cn1c(CCc2ccc(C(=N)N)cc2)nc2cc(C(=O)N(CCCc3ccccc3)Cc3ccc(C(=N)N)cc3)ccc21 [Example 16, 2-[2-(4-Amidinophenyl)-ethyl]-1-methyl-benzimidazol-5-yl-carboxylic Acid-N-(4-amidinobenzyl)-N-(3-phenylpropyl)-amide-dihydrochloride] | – | – | 154 |
